The values that follow come from US12312332B2 (Merck Sharp & Dohme LLC., priority 2019, dated 2025).

The structures appear in SMILES notation. pEC50: −log10 of the molar value.

The target of this assay is T1, human OX2R (Homo sapiens, UniProt O43614).
T1 construct: expressed in transfected cells; host or cells: Chinese hamster ovary (CHO) cells, kept under G418 selection
T1 sequence (O43614 1-444): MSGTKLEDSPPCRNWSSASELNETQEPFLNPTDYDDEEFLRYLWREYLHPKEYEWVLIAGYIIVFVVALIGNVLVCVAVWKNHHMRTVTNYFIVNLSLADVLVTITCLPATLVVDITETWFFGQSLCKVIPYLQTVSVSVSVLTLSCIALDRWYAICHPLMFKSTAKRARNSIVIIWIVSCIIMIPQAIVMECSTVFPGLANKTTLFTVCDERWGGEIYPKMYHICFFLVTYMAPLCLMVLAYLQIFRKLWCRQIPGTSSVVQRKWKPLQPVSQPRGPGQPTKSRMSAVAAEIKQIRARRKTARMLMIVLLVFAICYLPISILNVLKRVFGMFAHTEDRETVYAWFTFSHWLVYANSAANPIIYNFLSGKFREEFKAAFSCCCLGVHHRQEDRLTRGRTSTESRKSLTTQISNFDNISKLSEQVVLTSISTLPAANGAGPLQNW
Kind of assay: IPOne (IP-One) orexin receptor agonist assay in CHO cells expressing human OX2R. Type of assay: cell-based. The settings on record: for pEC50: CHO cells expressing human OX2R, IP-One detection, 2 hours incubation, four parameter logistic fit, read-out: OX2R Potency, EC50; for % max agonist effect (Emax): human OX2R, percentage of sample raw value/mean max effect (reference compound at 1 uM with 100% activity). The source says:
The utility of the compounds in accordance with the present invention as orexin receptor OX1R and/or OX2R agonists may be readily determined without undue experimentation by methodology well known in the art. Both the OX1R and/or OX2R G-coupled protein receptors (GPCRs) couple through the Gaq signaling pathway, which ultimately promotes calcium mobilization via inositol triphosphate (IP3) production. […] The utility of the compounds in accordance with the present invention as orexin receptor OX1R and/or OX2R agonists may be determined utilizing this assay.
In a typical experiment, the OX1 and OX2 receptor agonist activity is determined in accordance with the following general experimental method. Chinese hamster ovary (CHO) cells expressing human OX1R and/or the human OX2R were grown in Iscove's modified DMEM containing glutaMAX™, 1% G418, 100 U/mL penicillin, 100 μg/mL streptomycin and 10% heat-inactivated qualified fetal bovine serum (FBS). […] During this incubation, IP-one detection reagents were prepared (38:1:1 lysis buffer:D2:AB-cryptate reagents).
For each compound, data were fit to a four parameter logistic fit (ActivityBase software) and the EC50 was reported as the inflection point of the resulting curve. Percent effect for each test compound was determined as the percentage of sample raw value/mean max effect, where the mean max effect was derived from the mean raw value of 32 control wells per assay plate (using Orexin A (cat #003-30) at 1 μM for human OX1R and a reference compound at 1 uM with 100% activity previously established by comparison to Orexin A for human OX2R). The intrinsic orexin receptor agonist activity of a compound which may be used in the present invention may be determined by these assays.

With `CS(=O)(=O)N[C@H]1CCN(c2ccc(C(F)(F)F)cc2)[C@H]1CO[C@H]1CC[C@@H](c2ccccc2)CC1` (relative stereo) [Example 3, N-((CIS)-2-((((CIS)-4-phenylcyclohexyl)oxy)methyl)-1-(4-(trifluoromethyl)phenyl)pyrrolidin-3-yl)methanesulfonamide], the negative-log EC50 (pEC50) (in general, the negative decadic logarithm of the EC50, by convention in mol/L) was under 5.00 and the “% max agonist effect (Emax)” value is listed as 7.9%.

With `COc1cc(N2CC[C@H](NS(C)(=O)=O)[C@@H]2CO[C@H]2CC[C@@H](c3ccccc3)CC2)cnc1OC` [Example 54, N-((2R,3S)-1-(5,6-dimethoxypyridin-3-yl)-2-((((CIS)-4-phenylcyclohexyl)oxy)methyl)pyrrolidin-3-yl)methanesulfonamide], the pEC50 is 6.11 and the “% max agonist effect (Emax)” value is on record as 98.9%.

On to `COc1ccncc1N1CC[C@H](NS(C)(=O)=O)[C@@H]1CO[C@H]1CC[C@@H](c2ccccc2)CC1` [Example 51, N-((2R,3S)-1-(4-methoxypyridin-3-yl)-2-((((CIS)-4-phenylcyclohexyl)oxy)methyl)pyrrolidin-3-yl)methanesulfonamide], for which the pEC50 was 7.85 and the “% max agonist effect (Emax)” value stood at 100.3%.

Consider `Cc1sc(N2CC[C@H](NS(C)(=O)=O)[C@@H]2CO[C@H]2CC[C@@H](c3ccccc3)CC2)nc1Br` [Example 106, N-((2R,3S)-1-(4-bromo-5-methylthiazol-2-yl)-2-((((CIS)-4-phenylcyclohexyl)oxy)methyl)pyrrolidin-3-yl)methanesulfonamide], for which the pEC50 is 5.77 and the “% max agonist effect (Emax)” value was 98.0%.

On to `Cn1nnnc1N1CC[C@H](NS(C)(=O)=O)[C@@H]1CO[C@H]1CC[C@@H](c2ccccc2)CC1` [Example 31, N-((2R,3S)-1-(1-methyl-1H-tetrazol-5-yl)-2-((((CIS)-4-phenylcyclohexyl)oxy)methyl)pyrrolidin-3-yl)methanesulfonamide], for which the pEC50 was 8.59 and the “% max agonist effect (Emax)” value is 101.5%.

Turning to `Cn1cc(N2CC[C@H](NS(C)(=O)=O)[C@@H]2CO[C@H]2CC[C@@H](c3ccccc3)CC2)nn1` (relative stereo) [Example 8, N-((CIS)-1-(1-methyl-1H-1,2,3-triazol-4-yl)-2-((((CIS)-4-phenylcyclohexyl)oxy)methyl)pyrrolidin-3-yl)methanesulfonamide], the pEC50 was 6.82 and the “% max agonist effect (Emax)” value turned out to be 101.2%.

Consider `CS(=O)(=O)N[C@H]1CCN(c2ccc[n+]([O-])c2)[C@H]1CO[C@H]1CC[C@@H](c2ccccc2)CC1` [Example 134], for which the pEC50 was 7.68 and the “% max agonist effect (Emax)” value came to 101.7%.

Regarding `CS(=O)(=O)N[C@H]1CCN(c2cnc(C3CC3)cn2)[C@H]1CO[C@H]1CC[C@@H](c2ccccc2)CC1` [Example 66, N-((2R,3S)-1-(5-cyclopropylpyrazin-2-yl)-2-((((CIS)-4-phenylcyclohexyl)oxy)methyl)pyrrolidin-3-yl)methanesulfonamide], the pEC50 is 6.75 and the “% max agonist effect (Emax)” value is on record as 99.2%.

For `CN(C)c1ccnc(N2CC[C@H](NS(C)(=O)=O)[C@@H]2CO[C@H]2CC[C@@H](c3ccccc3)CC2)c1` [Example 74, N-((2R,3S)-1-(4-(dimethylamino)pyridin-2-yl)-2-((((CIS)-4-phenylcyclohexyl)oxy)methyl)pyrrolidin-3 - yl)methanesulfonamide], the pEC50 is 6.18 and the “% max agonist effect (Emax)” value was found to be 97.4%.

For the molecule `CS(=O)(=O)N[C@H]1CCN(c2occc2C#N)[C@H]1CO[C@H]1CC[C@@H](c2ccccc2)CC1` [Example 39, N-((2R,3 S)-1-(3-cyanofuran-2-yl)-2-((((CIS)-4-phenylcyclohexyl)oxy)methyl)pyrrolidin-3-yl)methanesulfonamide], the pEC50 is 6.21 and the “% max agonist effect (Emax)” value was 98.4%.

In the case of `Cc1ncc(N2CC[C@H](NS(C)(=O)=O)[C@@H]2CO[C@H]2CC[C@@H](c3ccccc3)CC2)s1` (relative stereo) [Example 9, N-((CIS)-1-(2-methylthiazol-5-yl)-2-((((CIS)-4-phenylcyclohexyl)oxy)methyl)pyrrolidin-3-yl)methanesulfonamide], the pEC50 is 5.72 and the “% max agonist effect (Emax)” value is 92.1%.

Turning to `COc1cncc(N2CC[C@H](NS(C)(=O)=O)[C@@H]2CO[C@H]2CC[C@@H](c3ccccc3)CC2)c1C` [Example 128, N-((2R,3S)-1-(5-methoxy-4-methylpyridin-3-yl)-2-((((CIS)-4-phenylcyclohexyl)oxy)methyl)pyrrolidin-3-yl)methanesulfonamide], the pEC50 is under 5.00 and the “% max agonist effect (Emax)” value stood at 50.4%.

In the case of `CS(=O)(=O)N[C@H]1CCN(c2ncc(Cl)c(O)c2F)[C@H]1CO[C@H]1CC[C@@H](c2ccccc2)CC1` [Example 114, N-((2R,3S)-1-(5-chloro-3-fluoro-4-hydroxypyridin-2-yl)-2-((((CIS)-4-phenylcyclohexyl)oxy)methyl)pyrrolidin-3-yl)methanesulfonamide], the negative logarithm of the EC50 (pEC50) was 8.77 and the “% max agonist effect (Emax)” value turned out to be 102.4%.

As for `Cc1cnc(N2CC[C@H](NS(C)(=O)=O)[C@@H]2CO[C@H]2CC[C@@H](c3ccccc3)CC2)cn1` [Example 65, N-((2R,3S)-1-(5-methylpyrazin-2-yl)-2-((((CIS)-4-phenylcyclohexyl)oxy)methyl)pyrrolidin-3-yl)methanesulfonamide], the pEC50 was 6.91 and the “% max agonist effect (Emax)” value is given as 100.9%.

As for `CS(=O)(=O)N[C@H]1CCN(c2cnc(C(F)(F)F)nc2)[C@H]1CO[C@H]1CC[C@@H](c2ccccc2)CC1` [Example 41], the negative logarithm of the EC50 (pEC50) was 6.76 and the “% max agonist effect (Emax)” value came to 100.2%.

As to `CS(=O)(=O)N[C@H]1CCN(c2ccc(O)cn2)[C@H]1CO[C@H]1CC[C@@H](c2ccccc2)CC1` [Example 68, N-((2R,3S)-1-(5-hydroxypyridin-2-yl)-2-((((CIS)-4-phenylcyclohexyl)oxy)methyl)pyrrolidin-3-yl)methanesulfonamide], the pEC50 was 6.76 and the “% max agonist effect (Emax)” value amounted to 99.1%.

Consider `CS(=O)(=O)N[C@H]1CCN(c2csc(-c3ccncc3)n2)[C@H]1CO[C@H]1CC[C@@H](c2ccccc2)CC1` (relative stereo) [Example 13, N-((CIS)-2-((((CIS)-4-phenylcyclohexyl)oxy)methyl)-1-(2-(pyridin-4-yl)thiazol-4-yl)pyrrolidin-3-yl)methanesulfonamide], for which the pEC50 is 5.76 and the “% max agonist effect (Emax)” value was found to be 83.9%.

For `Cc1ccnc(N2CC[C@H](NS(C)(=O)=O)[C@@H]2CO[C@H]2CC[C@@H](c3ccccc3)CC2)n1` [Example 67, N-((2R,3S)-1-(4-methylpyrimidin-2-yl)-2-((((CIS)-4-phenylcyclohexyl)oxy)methyl)pyrrolidin-3-yl)methanesulfonamide], the pEC50 was 5.66 and the “% max agonist effect (Emax)” value was 92.6%.

Regarding `COc1ncc(N2CC[C@H](NS(C)(=O)=O)[C@@H]2CO[C@H]2CC[C@@H](c3ccccc3)CC2)cc1C` [Example 55, N-((2R,3S)-1-(6-methoxy-5-methylpyridin-3-yl)-2-((((CIS)-4-phenylcyclohexyl)oxy)methyl)pyrrolidin-3-yl)methanesulfonamide], the pEC50 was 5.62 and the “% max agonist effect (Emax)” value stood at 91.4%.

Turning to `CS(=O)(=O)N[C@H]1CCN(c2ncccc2OC(F)(F)F)[C@H]1CO[C@H]1CC[C@@H](c2ccccc2)CC1` [Example 127], the pEC50 was 6.79 and the “% max agonist effect (Emax)” value was determined as 100.7%.

Consider `CS(=O)(=O)N[C@H]1CCN(c2ccc(OC(F)F)nc2)[C@H]1CO[C@H]1CC[C@@H](c2ccccc2)CC1` [Example 58, N-((2R,3S)-1-(6-(difluoromethoxy)pyridin-3-yl)-2-((((CIS)-4-phenylcyclohexyl)oxy)methyl)pyrrolidin-3-yl)methanesulfonamide], for which the pEC50 was 6.79 and the “% max agonist effect (Emax)” value is reported as 100.9%.

As for `CS(=O)(=O)N[C@H]1CCN(c2ncc(F)c(O)c2F)[C@H]1CO[C@H]1CC[C@@H](c2ccccc2)CC1` [Example 101, N-((2R,3S)-1-(3,5-difluoro-4-hydroxypyridin-2-yl)-2-((((CIS)-4-phenylcyclohexyl)oxy)methyl)pyrrolidin-3-yl)methanesulfonamide], the pEC50 is 8.70 and the “% max agonist effect (Emax)” value is reported as 100.5%.
